Experimental data published in patent publication US20190284192A1, “NITROGENOUS MACROCYCLIC COMPOUND, PREPARATION METHOD THEREFOR, PHARMACEUTICAL COMPOSITION AND APPLICATION THEREOF” (LUOXIN PHARMACEUTICAL (SHANGHAI) CO., LTD., priority 2016, published 2019).
Several values for one entry are separate records, joined by “and”; a condition that tells them apart may be missing. Identical values can stand only once. Like-named read-outs stand apart in the source and are kept apart here.

Tests used:
[1] = Body weight of MV-4-11 tumor-bearing mice during treatment; assay type: in vivo; details: for Average RCBW, Treatment end Day 15: relative body weight change vs Day 1; for Average RCBW, Treatment end Day 15 / Average body weight, Treatment end Day 15 / Average body weight, Treatment start Day 1: intragastric QD*14, ABBV-075 3, GSK762 15, 4009 10 mg/kg; for Average body weight, Treatment end Day 15 / Average body weight, Treatment start Day 1: x ± SEM
Experimental: The preparation and any revision of this experimental protocol are carried out in accordance with the evaluation criteria of the “Institute for Animal Care and Use (IACUC)” of Shanghai Chempartner Chemical Research Co., Ltd. The use and welfare of laboratory animals are carried out in accordance with the provisions of the Association for Assessment and Accreditation of Laboratory Animal Care (AAALAC). Animals are monitored daily for health and death. Routine examinations include observations of the effects of the test substance and the drug on the daily behavior of the animal such as behavioral activities, intake of water and feeds, weight change (three weights measured weekly), appearance signs or other anormal circumstance. The number of animal deaths and side effects in the group were recorded based on the number of animals in each group.

[2] = test system: MV-4-11 subcutaneous xenograft tumor; test: Anti-tumor efficacy in vivo, MV-4-11 subcutaneous xenograft model; parameters: species or system BALB/c nude mice; details: for anti-tumor effect on the MV-4-11 cell xenograft tumor mouse model: ABBV-075 3 mg/kg, GSK762 15 mg/kg, 4009 10 mg/kg; for anti-tumor effect on the MV-4-11 cell xenograft tumor mouse model / T/C % / Average tumor weight, 15th day of treatement / Average tumor volume, Treatement starts 1st day / Tumor volume TGI (%) 4th day / Tumor volume TGI (%) 6th day / Tumor volume TGI (%) 8th day / Tumor volume TGI (%) 11th day / Tumor volume TGI (%) 13th day / Tumor volume TGI (%) 15th day / Average tumor volume, Treatement ends 15th day: intragastric QD*14; for T/C %: TRTV/CRTV; for T/C % / P, tumor volume difference between the control group and the administrated group / Average tumor weight, 15th day of treatement / Average tumor volume, Treatement starts 1st day / Tumor volume TGI (%) 4th day / Tumor volume TGI (%) 6th day / Tumor volume TGI (%) 8th day / Tumor volume TGI (%) 11th day / Tumor volume TGI (%) 13th day / Tumor volume TGI (%) 15th day / Average tumor volume, Treatement ends 15th day: ABBV-075 3, GSK762 15, 4009 10 mg/kg; for T/C % / Tumor volume TGI (%) 15th day / Average tumor volume, Treatement ends 15th day: 15th day; for P, tumor volume difference between the control group and the administrated group: Two-way Anova Bonferroni post-test; for Average tumor volume, Treatement ends 15th day: 10 mg/kg
Experimental: Experimental protocol: 0.2 mL of cell suspension containing about 5×10^MV-4-11 cells (cell suspended in IMDM medium and added with 50% Matrigel) was inoculated subcutaneously into the right back of each mouse. Group administration was initiated when the average tumor volume reached approximately 136.94 mm^3 (day 15 post inoculation). Grouping method: Animals were weighed before dosing and tumor volume was measured. Grouping designed based on tumor volume.
The experimental indicator is to investigate whether tumor growth can be inhibited, delayed or cured. Tumor diameters were measured with vernier calipers three times a week. The formula for calculating tumor volume is: V=0.5×a×b^2, a and b represent the long and short diameters of the tumor, respectively. The antitumor effect of the compound was evaluated by T/C (%). T/C %=TRTV/CRTV×100% (TRTV: treatment group RTV; CRTV: negative comparative group RTV). The relative tumor volume RTV is calculated as RTV=Vt/V1. Where V1 is the measured tumor volume at the time of group administration (i.e., Day 1), and Vt is the tumor volume at each measurement.
The tumor volume and tumor size were analysed by statistical software. GraphPad Prism software was used for analyzation, p<0.05 is considered to have significant difference, p<0.01 is considered to have extremely significant difference.
Two-way Anova Bonferroni post-test is used to compare the tumor volume difference between the control group and the treatment group.

[3] = Cassette pharmacokinetic study, intravenous or oral administration; assay type: in vivo, female Balb/c nude mice; parameters: Cmax: unit not given here; details: for F: PO 2 mg/kg vs IV 0.5 mg/kg; for AUC(0-inf) / AUC(0-t) / MRT inf / clearance / half-life / Vd / Tmax: female, Balb/c nude, mouse, whole blood; for AUC(0-inf) / AUC(0-t) / MRT inf / clearance / half-life / Vd / Tmax / Cmax: N = 3, cassette; for half-life: read-out: Terminal t1/2 (converted); for Vd: read-out: Vss
Experimental: Determinations of the pharmacokinetic parameters of ABBV-075 (standard control), 4009, 4018, 4026 and 4031 in femal Balb/c nude mice after intravenous or oral administration.
Detailed Experimental Steps:
6 female Balb/c nude mice weighing 18-20 g were divided into two groups (3/group), after fixation, the intravenous group: 0.5 mg/kg (5 mL/kg) injected by caudal vein (N=3); the oral group: 2 mg/kg (10 mL/kg) by intragastic administration (N=3). Approximately 20 μL of blood was drawn behind the eyeball at the sampling point and placed in EDTA-2K tube. The sample was immediately diluted with 40 μL of double distilled water and vortexed until well mixed. Blood samples were stored at approximately −70° C. and submitted to the BA group for analysis (LC/MS). 30 μL of blood sample was added with 200 μL of H2O and 30 μL of IS dexamethasone, 200 ng/mL), layered by LLE, and 1 mL of MTBW was added as an organic extraction solvent. The mixture was vortexed for 10 min and centrifuged at 10,000 rpm for 5 min. 850 μL of the supernatant was evaporated under nitrogen until desiccated. The desiccated extract was re-mixed with 150 μL of 50% methanol, vortexed for 2 min, and then analyzed by injecting 5 μL of the supernatant into LC-MS/MS.
2. Intravenous/oral administration formula: 5% DMSO, 95% (10% HP-3-CD in water)
3. PK calculation parameter used non-compartment model, WinNonlin 6.4 software calculation

BRD4 (BD1) = target: T1, BRD4 (BD1) (Homo sapiens, UniProt O60885); test: BRD4 (BD1) bromodomain binding, HTRF; details: 2 h incubation at r.t.
T1 construct: Each member comprises two tandem bromodomains (BD1 and BD2) for recognizing the acetylated lysine residues

[4] = test system: MYC mRNA expression in MV-4-11 xenograft tumor; test: PKPD of compound 4009 in MV-4-11 subcutaneous xenograft (MYC mRNA by RT-qPCR); assay type: in vivo, BALB/c nude mice; details: 15 mg/kg single dose intragastric; 1, 2, 4, 6, 8, 24 h
Experimental: Cell Culture MV-4-11 (purchased from ATCC, CRL-9591) cells were single-layer-cultured in vitro, culture condition is IMDM medium supplemented with 10% heat-inactivated fetal bovine serum and 1% penicillin-streptomycin double antibody, at 37° C., 5% CO2. According to the growth of the cells, the treatment was passaged twice a week. When the cells are in the exponential growth phase, the cells are collected, counted, and inoculated.
Experimental protocol: 0.2 mL of cell suspension containing about […] cells (cell suspended in IMDM medium and added with 50% Matrigel) was inoculated subcutaneously into the right back of each mouse. […] Grouping method: animals were weighed before dosing and tumor volume was measured. […]
Preparation of cDNA: The concentration of RNA (NanaDrop2000) was determined, 2 μg RNA was used as a template for reverse transcription, and cDNA preparation (RT-PCR) was performed using a High Capacity cDNA Reverse Transcription Kit.
Quantitative amplification of the target gene: Real-time qPCR amplification was performed using TaqMan fluorescent probe and cDNA as a template. […] The reaction system was separately added to a 384-well plate, and each sample of the target gene and the comparative gene was measured for three replicate wells, and the reaction was run on a prepared 384-well plate instrument (ABI ViiA7).

Structure (SMILES)	Average RCBW, Treatment end Day 15 [1]	Average body weight, Treatment end Day 15 [1]	Average body weight, Treatment start Day 1 [1]	anti-tumor effect on the MV-4-11 cell xenograft tumor mouse model [2]	T/C % [2]	P, tumor volume difference between the control group and the administrated group ([2]; day 1 after administration)	P, tumor volume difference between the control group and the administrated group ([2]; day 4 after administration)	P, tumor volume difference between the control group and the administrated group ([2]; day 6 after administration)	F [3]	AUC(0-inf) ([3]; IV 0.5 mg/kg)	AUC(0-t) ([3]; IV 0.5 mg/kg)	MRT inf ([3]; IV 0.5 mg/kg)	clearance ([3]; IV 0.5 mg/kg)	half-life ([3]; IV 0.5 mg/kg)	Vd ([3]; IV 0.5 mg/kg)	AUC(0-inf) ([3]; PO 2 mg/kg)	AUC(0-t) ([3]; PO 2 mg/kg)	Tmax ([3]; PO 2 mg/kg)	half-life ([3]; PO 2 mg/kg)	IC50 (BRD4 (BD1))	further results
CCS(=O)(=O)Nc1ccc(Oc2ccc(F)cc2F)c(-c2cn(C)c(=O)c3[nH]ccc23)c1 [ABBV-075]	2.72%	21.95 ± 0.36 g	21.36 ± 0.21 g	significant anti-tumor effect	34.24%	P > 0.05	P > 0.05	P > 0.05	62.5%	510 ng·h/mL	457 ng·h/mL	3.1 h	16.4 mL/min/kg	2.8 h	3.06 L/kg	1680 ng·h/mL	1140 ng·h/mL	1 h	4.56 h	2 nM	P, tumor volume difference between the control group and the administrated group ([2]; day 8 after administration): P > 0.05; P, tumor volume difference between the control group and the administrated group ([2]; day 11 after administration): P < 0.01 (***); P, tumor volume difference between the control group and the administrated group ([2]; day 13 after administration): P < 0.01 (***); P, tumor volume difference between the control group and the administrated group ([2]; day 15 after administration): P < 0.01 (***); Average tumor weight, 15th day of treatement [2]: 0.314 ± 0.05 g; Average tumor volume, Treatement starts 1st day [2]: 136.45 ± 14.05 mm^3; Tumor volume TGI (%) 4th day [2]: 97.12%; Tumor volume TGI (%) 6th day [2]: 69.45%; Tumor volume TGI (%) 8th day [2]: 73.8%; Tumor volume TGI (%) 11th day [2]: 72.41%; Tumor volume TGI (%) 13th day [2]: 75.81%; Tumor volume TGI (%) 15th day [2]: 75.56%; Average tumor volume, Treatement ends 15th day [2]: 346.72 mm^3 and 346.72 ± 68.96 mm^3
CCS(=O)(=O)Cc1ccc2c(c1)-c1cn(C)c(=O)cc1[C@H](C)N=C2c1ccc(F)cc1 [Compound 4026, (S)-10-((ethylsulfone)methyl)-7-(4-fluorophenyl)-2,5-dimethyl-2,5-dihydro-3H-benzo[c]pyrido[3,4-e]azepin-3-ketone]									89.5%	1140 ng·h/mL	1100 ng·h/mL	3.21 h	7.5 mL/min/kg	2.85 h	1.43 L/kg	4050 ng·h/mL	3740 ng·h/mL	0.5 h	4.35 h	2 nM	Cmax ([3]; PO 2 mg/kg): 1082
CCS(=O)(=O)Cc1ccc2c(c1)-c1cn(C)c(=O)cc1CN=C2c1ccc(F)cc1 [Compound 4009, 7-(4-fluorophenyl)-2-methyl-10-(ethylsulfonemethyl)-2H-benzo[c]pyrido[3,4-e]azepin-3(5H)-ketone]	2.82%	21.88 ± 0.73 g	21.26 ± 0.38 g	significant anti-tumor effect	30.13%	P > 0.05	P > 0.05	P > 0.05	99.7%	590 ng·h/mL	575 ng·h/mL	1.61 h	14.2 mL/min/kg	1.69 h	1.38 L/kg	2350 ng·h/mL	2250 ng·h/mL	0.667 h	4.21 h	6 nM	inhibition of the expression level of MYC mRNA in the tumor versus concentration of the drug in the tumor [4]: good correlation; body weight and condition of mice during the entire administration period ([1]; 4009 10 mg/kg intragastric QD*14): did not decrease in body weight; P, tumor volume difference between the control group and the administrated group ([2]; day 8 after administration): P > 0.05; P, tumor volume difference between the control group and the administrated group ([2]; day 11 after administration): P < 0.001 (***); P, tumor volume difference between the control group and the administrated group ([2]; day 13 after administration): P < 0.001 (***); P, tumor volume difference between the control group and the administrated group ([2]; day 15 after administration): P < 0.001 (***); Average tumor weight, 15th day of treatement [2]: 0.276 ± 0.08 g; Average tumor volume, Treatement starts 1st day [2]: 136.78 ± 14.97 mm^3; Tumor volume TGI (%) 4th day [2]: 81.27%; Tumor volume TGI (%) 6th day [2]: 75.63%; Tumor volume TGI (%) 8th day [2]: 79.64%; Tumor volume TGI (%) 11th day [2]: 83.17%; Tumor volume TGI (%) 13th day [2]: 81.77%; Tumor volume TGI (%) 15th day [2]: 81.16%; Average tumor volume, Treatement ends 15th day [2]: 305.80 mm^3 and 305.80 ± 81.48 mm^3; Cmax ([3]; PO 2 mg/kg): 742
